Assay results: patent US10745390B2, “Small molecule activators of mitochondrial function” (THE TRUSTEES OF THE UNIVERSITY OF PENNSYLVANIA, priority 2008, dated 2020)

Experiments:
[1] = test system: I154F FA cells; experiment: I154F frataxin point-mutation model, rescue from FAC and/or BSO; assay type: cell-based, murine
Text: 2. Preliminary testing in the I154F frataxin point-mutation model determines whether test compounds can rescue I154F FA cells from lethal concentrations of FAC and/or BSO. Among the mammalian-cell models that have, or recapitulate, the genetic defects underlying FA, by far the most robust (and best validated) is the I154F murine frataxin point-mutation model developed by Puccio and colleagues (Calmels, N. et al.), the first cellular model based on frataxin missense mutations that reproduces spontaneously the defects associated with Friedreich ataxia (PLoS One 4, e6379 (2009)). […] This model is also extremely stable, with phenotypes unchanged after months of continuous culture. In contrast, the mutations in available primary human FA fibroblasts are GAA repeat expansions in the first intron of the FXN gene; occasional cells in which these expansions contract have a growth advantage and take over the culture, diluting the phenotype and increasing variance in various measures of compound efficacy.
In another screen, testing was conducted in the I154F point-mutation model as described above, to determine whether test compounds could rescue I154F FA cells from lethal or sublethal concentrations of FAC and/or BSO. Effective in this screen were the following compounds: N-[(5-chloro-8-hydroxyquinolin-7-yl)-thiophen-2-ylmethyl]-3-phenylpropanamide, N-[(5-chloro-8-hydroxyquinolin-7-yl)-thiophen-2-ylmethyl]pentanamide, N-[(5-chloro-8-hydroxyquinolin-7-yl)-furan-2-ylmethyl]-3-phenylpropanamide, N-[(5-chloro-8-hydroxyquinolin-7-yl)-furan-2-ylmethyl]propanamide, N-[(5-chloro-8-hydroxyquinolin-7-yl)-furan-2-ylmethyl]pentanamide, N-[(5-chloro-8-hydroxyquinolin-7-yl)-tolyl]-3-phenylpropanamide, N-[(5-chloro-8-hydroxyquinolin-7-yl)-(3-methoxyphenyl)methyl]-3-phenylpropanamide, N-[(5-chloro-8-hydroxyquinolin-7-yl)-(4-dimethylaminophenyl)methyl]-3-phenylpropanamide, N-[(5-chloro-8-hydroxyquinolin-7-yl)-(4-chlorophenyl)methyl]-3-phenylpropanamide, N-[(5-chloro-8-hydroxyquinolin-7-yl)-(3-chlorophenyl)methyl]-3-phenylpropanamide, N-[(5-chloro-8-hydroxyquinolin-7-yl)-(2-chlorophenyl)methyl]-3-phenylpropanamide, N-[(5-chloro-8-hydroxyquinolin-7-yl)-(3,4-dimethoxyphenyl)methyl]-3-phenylpropanamide, N-[(5-chloro-8-hydroxyquinolin-7-yl)-(2,4-dimethoxyphenyl)methyl]-3-phenylpropanamide, N-[(5-chloro-8-hydroxyquinolin-7-yl)-(3,4,5-trimethoxyphenyl)methyl]-3-phenylpropanamide, N-[(5-chloro-8-hydroxyquinolin-7-yl)-(2-bromophenyl)methyl]-3-phenylpropanamide, N-[(5-chloro-8-hydroxyquinolin-7-yl)-p-tolyl-methyl]-3-phenylpropanamide, N-[(5-chloro-8-hydroxyquinolin-7-yl)-(2-hydroxyphenyl)methyl]-3-phenylpropanamide (1a-18), and N-[(5-chloro-8-hydroxyquinolin-7-yl)-(4-methoxyphenyl)methyl]-3-phenylpropanamide.

[2] = test system: yeast lacking Yfh1p; experiment: Yeast-based screening assay (WST-1 tetrazolium dye reduction); assay type: cell-based; conditions: glycerol medium, 72 h, OD450, single dose 50 uM, activity threshold >1.32 fold increase in absorbance
Procedure: The aim of this assay is to identify compounds that can improve mitochondrial function in yeast lacking Yfh1p grown in a non-fermentable growth medium. The yeast Yfh1p expression construct used in this study has a galactose-inducible, glucose-repressible promoter driving Yfh1p production. Yfh1p is expressed when yeast are grown in the presence of galactose and inhibited when they are grown in the presence of dextrose. Growing the cells in the presence of dextrose not only turns off the expression of Yfh1p, but also leads to the depletion of Yfh1p in the cells. Transferring the Yfh1p-depleted cells into a non-fermentable, glycerol-based medium dictates that the yeast must use an oxidative pathway. […] Cleavage of the tetrazolium salt to formazan is accompanied by an increase in absorbance at 450 nm.
Compounds in the single dose assay were evaluated on the basis of Fold Induction compared to yeast only, and those in the dose response assay on percent activation, i.e. percent induction of tetrazolium dye reduction in yeast grown in a non-fermentable growth medium. Percent activation was calculated using the optical density in control wells with cells treated with positive control compound (25 uM methyl 4-(1, 2, 4, 5-tetraazin-3-yl) phenyl ether (MLSMR External ID: MLS000550612; PubChem SID: 14718875)) as full induction of tetrazolium dye reduction (100% activation), and wells with cells grown in medium without methyl 4-(1, 2, 4, 5-tetraazin-3-yl) phenyl ether as an indicator of 0% activation. Library compounds were screened at 50 uM. From the 50 uM single dose assay, 1250 compounds with significant tetrazolium dye reduction were selected for confirmatory dose response assay. These compounds were screened in a 10-point dilution series ranging from 0.01 to 100 uM.
The following screening protocol was followed. Yeast cells containing an inducible/repressible promoter for Yfh1p expression were cultured in induction medium (Yfh1 on) with Galactose as the carbon source, and then shifted to repression medium (Yfh1 off) with Dextrose as the carbon source (for 24 hours) to allow Yfh1 protein to decay. The cells were then incubated for 24 h in respiration-only medium (Yfh1 off) with Glycerol as the carbon source to allow cells to equilibrate, and then plated in 384 well plates in respiration-only medium (Yfh1 off) with glycerol as carbon source, in the presence of Tetrazolium dye (WST-1) for 72 hours.
Preparation of Assay • 1. Cells were streaked out on a YPGal agar plate and grown inverted for 3 days at 30 C. • 2. A colony was selected and 10 mL of YPGal medium inoculated and grown over night at 30 C with shaking. • 3. The cells were counted on a coulter counter, centrifuged at 1400 g for 5 min in dextrose (CSMM-D) medium, washed twice to remove all galactose, and resuspended in CSMM-D medium at a cell density of 2 to the power of 5 cells/mL. • 4. Frozen stocks were prepared at this point, in dextrose medium. For these dextrose stock solutions, enough culture was grown in dextrose media over night with shaking at 30 C, to get a cell density of ˜2 to the power of 7 cells/mL. The cells were centrifuged at 1400 g for 5 min and the pellet resuspended in glycerol freezing medium at a cell density of 2 to the power of 8 cells/mL. • 5. The day before the screen, frozen culture was thawed at room temperature and resuspended in glycerol (CSMM-G) medium. • 6. The culture was grown over night at 30 C with shaking and the cells counted and diluted in CSMM-G medium for a final cell density of 4 to the power of 6 cells/mL. • 7. Methyl 4-(1, 2, 4, 5-tetraazin-3-yl) phenyl ether (positive control), CSMM-G medium alone (negative control) and compounds were plated with DMSO at 200× concentration (final concentrations: methyl 4-(1, 2, 4, 5-tetraazin-3-yl) phenyl ether 25 uM, compounds 50 uM, DMSO 0.5%) in 384-well plates: 125 nL/well. For the dose response assay, compounds were plated in a 10-point dilution series ranging from 0.01 to 100 uM, at 1% DMSO. • 8. […]

[3] = test system: superoxide dismutase activity; experiment: Superoxide dismutase activity in vitro after metal pre-loading (Fluka assay kit); assay type: biochemical
Text: 3. Evaluate the catalytic activity of the compound by pre-loading with manganese, iron, or other metal and assaying superoxide dismutase and/or catalase activity in vitro. This assay helps identify a possible mechanism of action that would help explain the unusual combination of high potency, and high specificity, of the compounds embodied herein. […] Yet compounds that act catalytically are usually relatively non-specific, whereas the compounds embodied herein were confirmed active in only one assay (the FA yeast assay mentioned above) of 168 high-throughput screening assays in which they have been tested to date. With no duty to disclose the mechanism of action of the compounds embodied here and without being bound based thereon, it is hypothesized that the compounds embodied herein are chelating iron within cells and acting as superoxide dismutase (SOD) and/or catalase mimetics.
In a further evaluation, the catalytic activity of the test compound was measured by pre-loading with manganese, or various forms of iron, or other metals, and assaying superoxide dismutase activity in vitro using an assay kit from Fluka. Control levels of inhibition of SOD activity was about 4.5%, and 300 nM compound N-[(5-chloro-8-hydroxyquinolin-7-yl)-thiophen-2-ylmethyl]-3-phenylpropanamide pre-loaded with manganese about 5%. However, preloading with iron acetate increased inhibition to about 40%.

[4] = test system: complex I; experiment: Complex I inhibition in SH-SY5Y cells; assay type: cell-based
Procedure: Step 5. Screening in mammalian cells treated with inhibitors of specific complexes of the ETC. […] Antimycin A and oligomycin kill SH-SY5Y cells in the high nM range, as assessed by LDH leakage and DNA fragmentation.
Further screening in mammalian cells treated with inhibitors of specific complexes of the ETC is conducted. […] Antimycin A and oligomycin kill SH-SY5Y cells in the high nM range, as assessed by LDH leakage and DNA fragmentation.

[5] = test system: SH-SY5Y cells; experiment: Killing of SH-SY5Y cells by ETC inhibitors; assay type: cell-based; conditions: for concentration range killing SH-SY5Y cells: LDH leakage and DNA fragmentation
Procedure: Step 5. Screening in mammalian cells treated with inhibitors of specific complexes of the ETC.
Further screening in mammalian cells treated with inhibitors of specific complexes of the ETC is conducted.

| Molecule | rescue of I154F FA cells from lethal or sublethal concentrations of FAC and/or BSO [1] | active in the screen (tetrazolium dye reduction) [2] | concentration range killing SH-SY5Y cells [5] | further results |
| --- | --- | --- | --- | --- |
| O=C(CCc1ccccc1)NC(c1cccs1)c1cc(Cl)c2cccnc2c1O (stereo not drawn) [N-[(5-chloro-8-hydroxyquinolin-7-yl)-thiophen-2-ylmethyl]-3-phenylpropanamide] | Effective | active |  | inhibition of SOD activity ([3]; 300 nM compound pre-loaded with manganese, control about 4.5%): about 5%; increase in inhibition by iron ([3]; iron acetate versus manganese pre-loading): eight-fold; inhibition of SOD activity ([3]; preloading with iron acetate): about 40% |
| CCCCC(=O)NC(c1cccs1)c1cc(Cl)c2cccnc2c1O (stereo not drawn) [N-[(5-chloro-8-hydroxyquinolin-7-yl)-thiophen-2-ylmethyl]pentanamide] | Effective | active |  |  |
| CC(=O)NC(c1ccc(C)cc1)c1cc([N+](=O)[O-])c2cccnc2c1O (stereo not drawn) [N-[{8-hydroxy-5-nitro-7-quinolinyl}(4-methylphenyl)methyl]acetamide] |  | active |  |  |
| C=C(C)[C@H]1Cc2c(ccc3c2O[C@@H]2COc4cc(OC)c(OC)cc4[C@@H]2C3=O)O1 [Rotenone] |  |  |  | concentration range inhibiting complex I [4]: nM range; death ([5]; trypan blue exclusion, after 7 days at 60 μM): 90% |
| CC[C@H]1/C=C/C=C/C[C@@H](C)[C@H](O)[C@@](C)(O)C(=O)[C@@H](C)[C@H](O)[C@@H](C)C(=O)[C@@H](C)[C@H](O)[C@@H](C)/C=C/C(=O)O[C@@H]2[C@H](C)[C@H](CC1)O[C@]1(CC[C@H](C)[C@H](C[C@@H](C)O)O1)[C@H]2C [oligomycin] |  |  | high nM range |  |
| Antimycin A |  |  | high nM range |  |
